Laboratory results as given in patent US6525001B1, “Substituted pyrimidine and pyridine herbicides” (Mid-American Commercialization Corporation, priority 1997, dated 2003).

Tests used:
Test in all cases: Test D
Type in all cases: in vivo
[1] = tested on: Italian ryegrass (Lolium multiflorum); details: POSTEMERGENCE
Description: (§1) Compounds evaluated in this test were formulated in a non-phytotoxic solvent mixture which included a surfactant and applied to plants that were in the 1- to 4-leaf stage (postemergence application). A mixture of sandy loam soil and greenhouse potting mix in a 60:40 ratio was used for the postemergence test.
(§2) Plantings of these crops and weed species were adjusted to produce plants of appropriate size for the postemergence test. All plant species were grown using normal greenhouse practices. Crop and weed species include alfalfa (Medicago sativa), annual bluegrass (Poa annua), blackgrass (Alopecurus myosuroides), black nightshade (Solanum nigra), chickweed (Stellaria media), common poppy (Papaver rhoeas), deadnettle (Lamium amplexicaule), downy brome (Bromus tectorum), field violet (Viola arvensis), galium 2 (Galium aparine), green foxtail (Setaria viridis), Italian ryegrass (Lolium multiflorum), jointed goatgrass (Aegilops cylindrica), kochia (Kochia scoparia), lambsquarters (Chenopodium album), lentil (Lens culinaris), littleseed canarygrass (Phalaris minor), pea (Pisum sativum), potato (Solanum tuberosum), rape (Brassica napus), redroot pigweed (Amaranthus retroflexus), Russian thistle (Salsola kali), scentless chamomile (Matricaria inodora), sorghum (Sorghum vulgare), spring barley (Hordeum vulgare), sugar beet (Beta vulgaris), sunflower (Helianthus annuus), ivyleaf speedwell (Veronica hederaefolia), spring wheat (Triticum aestivum), winter wheat (Triticum aestivum), wild buckwheat (Polygonum convolvulus), wild mustard (Sinapis arvensis), wild oat (Avena fatua), windgrass (Apera spica-venti) and winter barley (Hordeum vulgare).
(§3) Treated plants and untreated controls were maintained in a greenhouse for approximately 21 to 28 days, after which all treated plants were compared to untreated controls and visually evaluated. Plant response ratings, summarized in Table D, are based upon a 0 to 100 scale where 0 is no effect and 100 is complete control. A dash response (−) means no test result.

[2] = tested on: annual bluegrass (Poa annua); details: POSTEMERGENCE
Description: as §1, §2, §3

[3] = tested on: blackgrass (Alopecurus myosuroides); details: POSTEMERGENCE
Description: as §1, §2, §3

[4] = tested on: downy brome (Bromus tectorum); details: POSTEMERGENCE
Description: as §1, §2, §3

[5] = tested on: green foxtail (Setaria viridis); details: POSTEMERGENCE
Description: as §1, §2, §3

[6] = tested on: jointed goatgrass (Aegilops cylindrica); details: POSTEMERGENCE
Description: as §1, §2, §3

[7] = tested on: littleseed canarygrass (Phalaris minor); details: POSTEMERGENCE
Description: as §1, §2, §3

[8] = tested on: scentless chamomile (Matricaria inodora); details: POSTEMERGENCE
Description: as §1, §2, §3

[9] = tested on: spring barley (Hordeum vulgare); details: POSTEMERGENCE
Description: as §1, §2, §3

[10] = tested on: spring wheat (Triticum aestivum); details: POSTEMERGENCE
Description: as §1, §2, §3

[11] = tested on: sunflower (Helianthus annuus); details: POSTEMERGENCE
Description: as §1, §2, §3

[12] = tested on: wild oat (Avena fatua); details: POSTEMERGENCE
Description: as §1, §2, §3

[13] = tested on: windgrass (Apera spica-venti); details: POSTEMERGENCE
Description: as §1, §2, §3

[14] = tested on: winter barley (Hordeum vulgare); details: POSTEMERGENCE
Description: as §1, §2, §3

[15] = tested on: winter wheat (Triticum aestivum); details: POSTEMERGENCE
Description: as §1, §2, §3

[16] = tested on: lambsquarters (Chenopodium album); design: key: 0 is no effect; details: POSTEMERGENCE
Description: as §1, §2, §3

[17] = tested on: black nightshade (Solanum nigra); design: key: 0 is no effect; 100 is complete control; details: PREEMERGENCE
[18] = tested on: deadnettle (Lamium amplexicaule); details: PREEMERGENCE
[19] = tested on: downy brome (Bromus tectorum); details: PREEMERGENCE
[20] = tested on: redroot pigweed (Amaranthus retroflexus); details: PREEMERGENCE
[21] = tested on: scentless chamomile (Matricaria inodora); details: PREEMERGENCE
[22] = tested on: spring barley (Hordeum vulgare); details: PREEMERGENCE
[23] = tested on: wild mustard (Sinapis arvensis); design: key: 0 is no effect; 100 is complete control; details: PREEMERGENCE
[24] = tested on: wild oat (Avena fatua); details: PREEMERGENCE

Cc1cnc(-c2ccc(C(F)(F)F)cc2)nc1Cc1cccc(C(F)(F)F)c1 [Example 1, 5-methyl-2-[4-(trifluoromethyl)phenyl]-4-[[3-(trifluoromethyl)phenyl]methyl]pyrimidine]
Plant response rating, I. Ryegrass ([1]; Rate 16 g/ha): 5
Plant response rating, I. Ryegrass ([1]; Rate 31 g/ha): 10
Plant response rating, I. Ryegrass ([1]; Rate 62 g/ha): 10
Plant response rating, I. Ryegrass ([1]; Rate 125 g/ha): 10
Plant response rating, Annual bluegras ([2]; Rate 16 g/ha): 20
Plant response rating, Annual bluegras ([2]; Rate 31 g/ha): 50
Plant response rating, Annual bluegras ([2]; Rate 62 g/ha): 50
Plant response rating, Blackgrass ([3]; Rate 16 g/ha): 10
Plant response rating, Blackgrass ([3]; Rate 31 g/ha): 10
Plant response rating, Blackgrass ([3]; Rate 62 g/ha): 10
Plant response rating, Blackgrass ([3]; Rate 125 g/ha): 30
Plant response rating, Downy brome ([4]; Rate 16 g/ha): 2
Plant response rating, Downy brome ([4]; Rate 31 g/ha): 10
Plant response rating, Downy brome ([4]; Rate 62 g/ha): 10
Plant response rating, Downy brome ([4]; Rate 125 g/ha): 10
Plant response rating, Green foxtail ([5]; Rate 16 g/ha): 5
Plant response rating, Green foxtail ([5]; Rate 31 g/ha): 10
Plant response rating, Green foxtail ([5]; Rate 62 g/ha): 20
Plant response rating, Green foxtail ([5]; Rate 125 g/ha): 20
Plant response rating, Jointed goatgra ([6]; Rate 16 g/ha): 5
Plant response rating, Jointed goatgra ([6]; Rate 31 g/ha): 10
Plant response rating, Jointed goatgra ([6]; Rate 62 g/ha): 10
Plant response rating, Jointed goatgra ([6]; Rate 125 g/ha): 10
Plant response rating, LS canarygrass ([7]; Rate 16 g/ha): 10
Plant response rating, LS canarygrass ([7]; Rate 31 g/ha): 10
Plant response rating, LS canarygrass ([7]; Rate 62 g/ha): 20
Plant response rating, LS canarygrass ([7]; Rate 125 g/ha): 20
Plant response rating, Scentless chamo ([8]; Rate 16 g/ha): 30
Plant response rating, Scentless chamo ([8]; Rate 31 g/ha): 60
Plant response rating, Scentless chamo ([8]; Rate 62 g/ha): 60
Plant response rating, Scentless chamo ([8]; Rate 125 g/ha): 60
Plant response rating, Spring Barley ([9]; Rate 16 g/ha): 5
Plant response rating, Spring Barley ([9]; Rate 31 g/ha): 10
Plant response rating, Spring Barley ([9]; Rate 62 g/ha): 10
Plant response rating, Spring Barley ([9]; Rate 125 g/ha): 10
Plant response rating, Spring Wheat ([10]; Rate 16 g/ha): 5
Plant response rating, Spring Wheat ([10]; Rate 31 g/ha): 10
Plant response rating, Spring Wheat ([10]; Rate 62 g/ha): 10
Plant response rating, Spring Wheat ([10]; Rate 125 g/ha): 20
Plant response rating, Sunflower ([11]; Rate 16 g/ha): 5
Plant response rating, Sunflower ([11]; Rate 31 g/ha): 10
Plant response rating, Sunflower ([11]; Rate 62 g/ha): 20
Plant response rating, Sunflower ([11]; Rate 125 g/ha): 20
Plant response rating, Wild oat ([12]; Rate 16 g/ha): 5
Plant response rating, Wild oat ([12]; Rate 31 g/ha): 20
Plant response rating, Wild oat ([12]; Rate 62 g/ha): 20
Plant response rating, Wild oat ([12]; Rate 125 g/ha): 30
Plant response rating, Windgrass ([13]; Rate 16 g/ha): 5
Plant response rating, Windgrass ([13]; Rate 31 g/ha): 20
Plant response rating, Windgrass ([13]; Rate 125 g/ha): 30
Plant response rating, Barley (winter) ([14]; Rate 16 g/ha): 5
Plant response rating, Barley (winter) ([14]; Rate 31 g/ha): 10
Plant response rating, Barley (winter) ([14]; Rate 62 g/ha): 10
Plant response rating, Barley (winter) ([14]; Rate 125 g/ha): 10
Plant response rating, Wheat (winter) ([15]; Rate 16 g/ha): 5
Plant response rating, Wheat (winter) ([15]; Rate 31 g/ha): 10
Plant response rating, Wheat (winter) ([15]; Rate 62 g/ha): 10
Plant response rating, Wheat (winter) ([15]; Rate 125 g/ha): 10
Plant response rating, Lambsquarters ([16]; Rate 16 g/ha): 0
Plant response rating, Lambsquarters ([16]; Rate 31 g/ha): 60
Plant response rating, Lambsquarters ([16]; Rate 62 g/ha): 60
Plant response rating, Lambsquarters ([16]; Rate 125 g/ha): 50
Plant response rating, Blk nightshade ([17]; Rate 31 g/ha): 55
Plant response rating, Blk nightshade ([17]; Rate 62 g/ha): 90
Plant response rating, Blk nightshade ([17]; Rate 125 g/ha): 100
Plant response rating, Blk nightshade ([17]; Rate 250 g/ha): 100
Plant response rating, Deadnettle ([18]; Rate 31 g/ha): 60
Plant response rating, Deadnettle ([18]; Rate 62 g/ha): 65
Plant response rating, Deadnettle ([18]; Rate 125 g/ha): 85
Plant response rating, Deadnettle ([18]; Rate 250 g/ha): 90
Plant response rating, Downy brome ([19]; Rate 31 g/ha): 30
Plant response rating, Downy brome ([19]; Rate 62 g/ha): 50
Plant response rating, Downy brome ([19]; Rate 125 g/ha): 60
Plant response rating, Redroot pigweed ([20]; Rate 31 g/ha): 75
Plant response rating, Redroot pigweed ([20]; Rate 62 g/ha): 70
Plant response rating, Redroot pigweed ([20]; Rate 125 g/ha): 75
Plant response rating, Redroot pigweed ([20]; Rate 250 g/ha): 70
Plant response rating, Scentless chamo ([21]; Rate 31 g/ha): 30
Plant response rating, Scentless chamo ([21]; Rate 62 g/ha): 70
Plant response rating, Scentless chamo ([21]; Rate 125 g/ha): 75
Plant response rating, Scentless chamo ([21]; Rate 250 g/ha): 85
Plant response rating, Spring Barley ([22]; Rate 31 g/ha): 10
Plant response rating, Spring Barley ([22]; Rate 62 g/ha): 20
Plant response rating, Spring Barley ([22]; Rate 125 g/ha): 20
Plant response rating, Spring Barley ([22]; Rate 250 g/ha): 40
Plant response rating, Wild mustard ([23]; Rate 31 g/ha): 60
Plant response rating, Wild mustard ([23]; Rate 62 g/ha): 100
Plant response rating, Wild mustard ([23]; Rate 125 g/ha): 100
Plant response rating, Wild mustard ([23]; Rate 250 g/ha): 98
Plant response rating, Wild oat ([24]; Rate 31 g/ha): 20
Plant response rating, Wild oat ([24]; Rate 62 g/ha): 60
Plant response rating, Wild oat ([24]; Rate 125 g/ha): 60
Plant response rating, Wild oat ([24]; Rate 250 g/ha): 90
